In patent publication US10865222B2, “Neisseria gonorrhoeae therapeutic based on CMP-nonulosonate sugars” (priority 2014, dated 2020):
“Also recorded” adds a separate entry of the source.

Assays:
[1] = tested on: Ng 398078 (expresses P^K-like structure on HepI); experiment: Complement resistance of Ng 398078 (serum bactericidal assay); format: cell-based, N. gonorrhoeae; settings: 10% normal human serum
Method: CMP-Leg5Ac7Ac and CMP-Neu5Ac9Az also counteracted CMP-Neu5Ac-mediated serum resistance of a P^K LOS expressing isolate called 398078 (Table 4).
Serum bactericidal assays were performed as described previously (11). Bacteria harvested from an overnight culture on chocolate agar plates were grown in liquid media containing the specified concentration of CMP-nonulosonate as specified for each experiment. Approximately 2000 CFU of F62 ΔIgtD were incubated with NHS (concentration specified for each experiment). The final reaction volumes were maintained at 150 μl. Aliquots of 25 μl of reaction mixtures were plated onto chocolate agar in duplicate at the beginning of the assay (t0) and again after incubation at 37° C. for 30 min (t30). Survival was calculated as the number of viable colonies at t30 relative to t0.

N. gonorrhoeae F62 ΔIgtD = experiment: Whole cell ELISA for Ab binding and complement component deposition; format: cell-based; settings: for complement deposition (C3, C4 and fB) and Ig binding: 3.3% and 10% NHS; for Neu5Ac-mediated decrease in IgG binding and complement deposition (C4, C3, factor Bb): analogue 20, 2 or 0.2 μg/ml 15 min after CMP-Neu5Ac 20 μg/ml, 10% and 3.3% NHS
Method: FIG. 4. Complement C3 and C4 deposition on, and factor B binding to N. gonorrhoeae bearing nonulosonic acid analogues on LOS. N. gonorrhoeae F62 ΔIgtD was grown in media alone (open bars), or media supplemented with 20 μg/ml (˜30 μM) of each of the indicated CMP-nonulosonates. Bacteria were incubated with either 3.3% or 10% NHS at 37° C. for 10 min and IgG and IgM binding, and C3, C4 and factor B deposited on bacteria were measured by whole cell ELISA. Data with 3.3% and 10% NHS is shown by hatched and solid bars, respectively. Measurement of gonococcal H.8 lipoprotein antigen was performed to ensure similar bacterial capture to microtiter wells. The mean (SD) of triplicate observations is shown.
FIG. 6. CMP-Neu5Ac9Az and CMP-Leg5Ac7Ac interfere with inhibition of the classical and alternative pathways of complement mediated by CMP-Neu5Ac. N. gonorrhoeae F62 ΔIgtD was incubated with 20 μg/ml (˜30 μM) CMP-Neu5Ac, followed in 15 min by the addition of CMP-Neu5Ac9Az or CMP-Leg5Ac7Ac (at concentrations of 20, 2 or 0.2 μg/ml final) and bacteria were incubated for 2 h as described in FIG. 5. Bacteria were incubated in 10% NHS and Ab binding and complement deposition studies were carried out by ELISA as described in FIG. 4. The mean (SD) of two independent experiments is shown.
Binding of IgG and IgM to, and deposition of complement components C3, C4 and factor B on N. gonorrhoeae F62 ΔIgtD grown in the presence of the following CMP-nonulosonates was examined based on results of bactericidal assays and fH binding. […] N. gonorrhoeae F62 ΔIgtD with an unmodified (unsialylated) LNT LOS was used as the control serum sensitive strain. Experiments were carried out using serum concentrations of 10% and 3.3%, which represented the serum concentrations that produced discriminating phenotypes with Neu5Ac9Ac and Neu5Gc8Me.
To define the mechanism whereby Neu5Ac9Az and Leg5Ac7Ac blocked complement resistance by Neu5Ac, we studied Ab binding to, and complement component deposition on N. gonorrhoeae F62 ΔIgtD that was incubated with CMP-Neu5Ac (20 μg/ml), followed 15 min later with either CMP-Neu5Ac9Az or CMP-Leg5Ac7Ac at concentrations of 20, 2 or 0.2 μg/ml. Controls included bacteria grown in the absence of any CMP-nonulosonate, or bacteria grown in CMP-Neu5Ac alone.
C3 and C4 fragment deposition on, and factor B binding to bacteria were measured by whole cell ELISA as described previously (14, 15). Briefly, 2×10^8 organisms in HBSS^++ were incubated with NHS (at concentrations of 3.3% or 10%) in a reaction volume of 100 μl for 10 min at 37° C. This time point was chosen based on the kinetics of complement deposition on gonococci in previously published data (15). Reactions were stopped after 10 min by washing three times with ice-cold HBSS containing 5 mM phenylmethylsulfonyl fluoride at 4° C. Organisms were resuspended in 200 μl of the same buffer, and 50 μl of each sample applied per well of a 96-well U-bottomed polystyrene microtiter plate (Dynatech Laboratories, Inc., Chantilly, Va.) and incubated for 3 h at 37° C. Plates were washed with PBS containing 0.05% Tween 20. Primary antibodies (polyclonal goat anti-human C3, C4 and factor B) were diluted in PBS, and secondary antibodies diluted in PBS-0.05% Tween 20 prior to use. To ensure similar capture of bacteria incubated under different conditions, the amount of gonococcal H.8 antigen (16) expression using MAb 2-8C-4-1 (13), followed by anti-mouse IgG-alkaline phosphatase conjugate, was measured.

[2] = CMP-nonulosonate 20 μg/ml, NHS 3.3% or 10%
[3] = 10% serum, compared with unsialylated F62 ΔIgtD
[4] = CMP-NulO 20 μg/ml added to media 15 min after CMP-Neu5Ac 20 μg/ml

CC(=O)NC1C(O)CC(OP(=O)(O)OCC2OC(n3ccc(N)nc3=O)C(O)C2O)(C(=O)O)OC1C(O)C(O)CO [CMP-Neu5Ac, CMP-5-acetamido-3,5-dideoxy-D-glycero-D-galacto-nonulosonic acid, reference compound]
% survival [mean (range)] ([1]; CMP-NulO alone at 20 μg/ml): 57.5 (1.6) % | complement deposition (C3, C4 and fB) and Ig binding (N. gonorrhoeae F62 ΔIgtD; CMP-nonulosonate 20 μg/ml): maximal complement inhibition | IgG binding (N. gonorrhoeae F62 ΔIgtD; [2]): decreased IgG binding substantially | IgM binding (N. gonorrhoeae F62 ΔIgtD; [2]): small but reproducible decrease

CC(=O)N[C@H]1[C@H]([C@H](O)[C@H](O)COC(C)=O)OC(OP(=O)(O)OC[C@H]2O[C@@H](n3ccc(N)nc3=O)[C@H](O)[C@@H]2O)(C(=O)O)C[C@@H]1O (stereo partly drawn) [CMP-Neu5Ac9Ac, CMP-5-acetamido-9-O-acetyl-3,5-dideoxy-D-glycero-D-galacto-nonulosonic acid]
C3, C4 and factor B deposition (N. gonorrhoeae F62 ΔIgtD; 3.3% serum): low levels | C3, C4 and factor B deposition (N. gonorrhoeae F62 ΔIgtD; [3]): only a modest decline | IgG binding (N. gonorrhoeae F62 ΔIgtD; [2]): reduced IgG binding

COC(CO)C(O)C1OC(OP(=O)(O)OCC2OC(n3ccc(N)nc3=O)C(O)C2O)(C(=O)O)CC(O)C1NC(=O)CO [CMP-Neu5Gc8Me, CMP-5-hydroxyacetamido-8-O-methyl-3,5-dideoxy-D-glycero-D-galacto-nonulosonic acid]
C3, C4 and factor B deposition (N. gonorrhoeae F62 ΔIgtD; 3.3% serum): low levels | C3, C4 and factor B deposition (N. gonorrhoeae F62 ΔIgtD; [3]): only a modest decline | IgG binding (N. gonorrhoeae F62 ΔIgtD; [2]): reduced IgG binding

5,7-diacetamido-3,5,7,9-tetradeoxy-D-glycero-D-galacto-nonulosonic acid [CMP-Leg5Ac7Ac]
% survival [mean (range)] [1, 4]: 0 (0) % | % survival [mean (range)] ([1]; CMP-NulO alone at 20 μg/ml): 0 (0) % | complement deposition (C3, C4 and fB) and Ig binding (N. gonorrhoeae F62 ΔIgtD; CMP-nonulosonate 20 μg/ml): highest levels of complement deposition and Ig binding | Neu5Ac-mediated decrease in IgG binding and complement deposition (C4, C3, factor Bb) (N. gonorrhoeae F62 ΔIgtD): least amount of complement inhibition; also recorded: blocked this decrease

CC(=O)N[C@H]1[C@H]([C@H](O)[C@H](O)CN=[N+]=[N-])OC(OP(=O)(O)OC[C@H]2O[C@@H](n3ccc(N)nc3=O)[C@H](O)[C@@H]2O)(C(=O)O)C[C@@H]1O (stereo partly drawn) [CMP-Neu5Ac9Az, CMP-5-acetamido-9-azido-3,5,9-trideoxy-D-glycero-D-galacto-nonulosonic acid]
% survival [mean (range)] [1, 4]: 7.5 (5.2) % | % survival [mean (range)] ([1]; CMP-NulO alone at 20 μg/ml): 7.1 (2.3) % | complement deposition (C3, C4 and fB) and Ig binding (N. gonorrhoeae F62 ΔIgtD; CMP-nonulosonate 20 μg/ml): highest levels of complement deposition and Ig binding | Neu5Ac-mediated decrease in IgG binding and complement deposition (C4, C3, factor Bb) (N. gonorrhoeae F62 ΔIgtD): blocked this decrease
